Reference: patent US10787476B2, “Glycoamino acid and use thereof” (AJINOMOTO CO., INC., priority 2013, dated 2020)

Key:
[1] = Dissolution rate in stirring water; type: physicochemical; conditions: for dissolution rate: inside temperature 34° C., n=2
Method: Leu and Glc-Leu were each added to stirring water (inside temperature 34° C.) in a hot-water bath at 35° C., and the dissolution rate was measured. The amount of the sample added and the measurement results are as shown below (n=2). As compared to Leu, Glc-Leu was dissolved 46 times faster in equal weight and 17 times faster in equimolar amount.

[2] = Heat stability of aqueous Glc-Leu solution (free Leu by HPLC); type: physicochemical; conditions: aqueous solution 100 mg/dl; for Leu liberated: 90° C.
Method: On the other hand, free Leu was not confirmed at 60° C. even after 72 hr, and sufficient heat stability as an amino acid precursor was shown.

α/β-glucosidase = assay: Glucosidase treatment, amino acid production amount by HPLC; type: in vitro ADME; conditions: phosphate buffer pH 5.5, 37° C., 30 min later
Method: Glc-Phe, Glc-Leu, Glc-Lys, Glc-Glu and Glc-DOPA were each dissolved in phosphate buffer (pH 5.5) at the ratio shown in Table 2, α/β-glucosidase in the amount shown in Table 2 was added, and the mixture was stirred in a hot-water bath at 37° C. The mixture was diluted 2-fold with 1% aqueous phosphoric acid solution, and analyzed by HPLC. […] As for Glc-Leu, about 80% of leucine was liberated 1 hr later; as for Glc-Lys, about 20% of lysine was liberated 1 hr later; as for Glc-Glu, about 40% of glutamic acid was liberated 1 hr later; and as for Glc-DOPA, about 70% of 3,4-dihydroxyphenylalanine was liberated 1 hr later.

[3] = equivalent weight, 300 mg/25 ml water

CC(C)C[C@H](NC(=O)OC1O[C@H](CO)[C@@H](O)[C@H](O)[C@H]1O)C(=O)O (stereo partly drawn) [Glc-Leu, N-(α/β-D-glucopyranosyloxycarbonyl)-L-leucine]
dissolution rate [1, 3]: 26 s | dissolved faster as compared to Leu ([1]; in equal weight): 46 times | dissolved faster as compared to Leu ([1]; in equimolar amount): 17 times | free Leu ([2]; 60° C., after 72 hr): not confirmed | Leu liberated ([2]; 72 hr): liberated almost completely | Leu liberated ([2]; about 6 hr): about 50%

O=C(N[C@@H](Cc1ccccc1)C(=O)O)OC1O[C@H](CO)[C@@H](O)[C@H](O)[C@H]1O (stereo partly drawn) [Glc-Phe, N-(α/β-D-glucopyranosyloxycarbonyl)-L-phenylalanine]
remaining glycoamino acid (α/β-glucosidase): almost disappeared

CC(C)C[C@H](N)C(=O)O [Leu, L-leucine, reference compound]
dissolution rate ([1]; equimolar amount to glycoamino acid, 111 mg (0.85 mmol)/25 ml water): (450 sec) | dissolution rate [1, 3]: (1203 sec)
